In brackets after ≈: the same amount, converted by molar mass.
Key:
[1] = tested on: human pancreatic cancer cell line (ASPC-1); experiment: Cytotoxic activity by CCK-8 method; format: cell-based
Protocol: The cytotoxic effects of all compounds against human pancreatic cancer cell line (ASPC-1) were evaluated by CCK-8 method.

coronavirus (HCoV-OC43) = experiment: microbe, parasite or virus in culture; format: cell-based; details: for SI (TC50/IC50): HCoV-OC43 in H460 cells
Protocol: (§1) Briefly, the H460 cells were inoculated into 96 well culture plates and cultured at 35°C under 5% CO2 condition, and infected by HCoV-OC43 virus with 100 times 50% tissue culture infective dose (TCID50) 24 h later; then the positive control drugs and test compounds were added. The half inhibitory concentration (IC50) and the half toxic concentration (TC50) were determined by the Reed and Muench method. The selectivity index (SI) was calculated as the ratio of TC50/IC50.

H460 cells = experiment: Half toxic concentration in the antiviral assay host cells; format: cell-based
Protocol: as §1

[2] = tested on: pancreatic cancer cell line PANC-1; design: method as in Wang et al., 2019; details: PANC-1 cells; ref Wang et al., 2019; cited from earlier work
[3] = Homo sapiens, ASPC1, AsPC-1 cells
[4] = Betacoronavirus 1, OC43, NCI-H460, HCoV-OC43 (100 TCID50) in H460 cells

Nc1ccn([C@@H]2O[C@H](CO)[C@@H](O)C2(F)F)c(=O)n1 [Gemcitabine, gemcitabine, reference compound]
IC50 [1, 3]: 1.53 µM

CC[C@H](C)C[C@@H](C)/C=C(\C)[C@@H]1O[C@H](c2c3c(cn(C)c2=O)[C@@]2(O)CCC(=O)C[C@@H]2O3)CC[C@H]1C [Compound 8, fusapyridon A]
IC50 (coronavirus (HCoV-OC43); [4]): 6.67 µg/mL (≈ 14.1 µM) | IC50 (coronavirus (HCoV-OC43); Betacoronavirus 1, OC43, NCI-H460, HCoV-OC43, unit as printed in running text): 6.65 µg/mL (≈ 14.1 µM) | SI (TC50/IC50) (coronavirus (HCoV-OC43)): 1.7 | TC50 (H460 cells): 11.55 µg/mL (≈ 24.5 µM) | IC50 [1, 3]: 29.7 µM

CC[C@H](C)C[C@@H](C)/C=C(\C)[C@@H]1O[C@H](c2c(O)c([C@@]3(O)CCC(=O)C[C@@H]3O)cn(C)c2=O)CC[C@H]1C [Compound 7, (–)-oxysporidinone]
IC50 (coronavirus (HCoV-OC43); [4]): 13.3 µg/mL (≈ 27.2 µM) | SI (TC50/IC50) (coronavirus (HCoV-OC43)): 1.7 | TC50 (H460 cells): 23.09 µg/mL (≈ 47.2 µM) | IC50 [1, 3]: 17.6 µM

CC[C@H](C)C[C@@H](C)/C=C(\C)[C@@H]1O[C@H](c2c(O)c(-c3ccc(O)cc3)cn(C)c2=O)CC[C@H]1C [Compound 6, (–)-sambutoxin]
TC50 (H460 cells): <0.02 µg/mL | IC50 [1, 3]: > 90 µM

NC(=O)c1ncn([C@@H]2O[C@H](CO)[C@@H](O)[C@H]2O)n1 [Ribavirin, ribavirin, reference compound]
IC50 (coronavirus (HCoV-OC43); [4]): 19.2 µg/mL (≈ 78.8 µM) | SI (TC50/IC50) (coronavirus (HCoV-OC43)): 5.2 | TC50 (H460 cells): 100 µg/mL (≈ 409 µM)

CC(C)C(O)C(=O)N(C)C(Cc1ccccc1)C(=O)OC(C(=O)N(C)C(Cc1ccccc1)C(=O)OC(C(=O)N(C)C(Cc1ccccc1)C(=O)O)C(C)C)C(C)C (centres unmarked) [Compound 1, Secobeauvericin A]
IC50 [1, 3]: > 90 µM

CC(C)C1OC(=O)C(Cc2ccccc2)N(C)C(=O)C(C(C)C)OC(=O)C(Cc2ccccc2)N(C)C(=O)C(C(C)C)OC(=O)C(Cc2ccccc2)NC1=O (centres unmarked) [Compound 5, beauvericin D]
IC50 [1, 3]: > 90 µM

CC[C@H](C)C[C@@H](C)/C=C(\C)[C@@H]1O[C@H](c2c3c(cn(C)c2=O)[C@@]2(OC)CCC(=O)C[C@@H]2O3)CC[C@H]1C [Compound 9, (–)-fusoxypyridone]
IC50 (coronavirus (HCoV-OC43); [4]): > 6.67 µg/mL | TC50 (H460 cells): 11.55 µg/mL (≈ 23.8 µM) | IC50 [1, 3]: 18.8 µM

CC1OC(=O)C(Cc2ccccc2)N(C)C(=O)C(C(C)C)OC(=O)C(Cc2ccccc2)N(C)C(=O)C(C(C)C)OC(=O)C(Cc2ccccc2)N(C)C1=O (centres unmarked) [Compound 3, Beauvericin N]
melting point: 82 to 83 °C | IC50 [1, 3]: > 90 µM

beauvericin [Compound 4]
IC50 ([1]; AsPC-1 cells): 3.45 µM

CC(C)=CCc1c(O)cc(O)c(C=O)c1C(=O)c1c(O)cc(C)c(Cl)c1O [E]
IC50 [2]: 7.2 µM

CC(C)C1OC(=O)C(Cc2ccccc2)NC(=O)C(C(C)C)OC(=O)C(Cc2ccccc2)N(C)C(=O)C(C(C)C)OC(=O)C(Cc2ccccc2)NC1=O (centres unmarked) [Compound 2, Beauvericin M]
melting point: 85 to 86 °C | IC50 [1, 3]: > 90 µM

— paper PMC9877305, “Cytotoxic hexadepsipeptides and anti-coronaviral 4-hydroxy-2-pyridones from an endophytic Fusarium sp” (Frontiers in Chemistry, 2023)
